Measurements from US11638712B2, “Bis(acetamidophenyl) guanidinophenylethylphosphonates for use in the prevention and/or treatment of PAR-related diseases” (Universiteit Antwerpen, priority 2016, dated 2023).

Tests used:
[1] = target: uPA (Homo sapiens, UniProt P00749); assay: in vitro serine protease inhibition profile: uPA; type: biochemical
[2] = tested on: ocular tissue damage; assay: rat dry eye model, ocular surface damage by fluorescein staining; type: in vivo; details: dry eye rats
Procedure: (§1) Female Wistar rats (200-300 g, Janvier, Roubaix, France) were kept under standard pathogen-free conditions. Husbandry conditions: room temperature 20-25° C., humidity 50-60% and a day-night cycle of 12 h light/12 h dark. Food and water were available ad libitum. All in vivo manipulations were approved by the Animal Ethical Committee of the University of Antwerp (2013-67) and are in accordance to the ARRIVE guidelines for the use of animals in ophthalmic and vision research.
To remove the exorbital lacrimal gland, animals were anesthetized with an intraperitoneal injection of 25 mg/kg ketamine (Anesketin®, Eurovet, Bladel, Netherlands) and 2.5 mg/kg xylazine (Rompun®, Bayer, Leverkusen, Germany). Routine manipulations (tear collection, fluorescein staining) were performed after induction with 5% isoflurane (Halocarbon®, New Jersey, USA), followed by a maintenance dosage of 1.5%.
(§2) To remove the gland, a small incision was made beneath the right ear. The lacrimal glands of the left eye were kept intact, leaving each animal with its own individual control and eliminating the need for extra control groups. Progression of dry eye was monitored for 24 days and tear volume measurements and fluorescein staining were performed once a week. Tears were collected twice a week.
Sodium-fluorescein (1%, Sigma-Aldrich, Seelze, Germany) in phosphate buffered saline (PBS, Gibco® by LifeTechnologies Europe, Gent, Belgium) was administered topically to the surface of the eye. To avoid false positives, eyes were rinsed after one minute with PBS and excess fluorescein was removed by placing filter paper in the lateral cantus of the eye. The eye was photographed with a microscopic lens (Photo adapter 1.0 MC 80 DX-Axiovert 25 CA, Carl Zeiss AB, Gottingen, Germany) in a darkened room under cobalt blue light. Using the Oxford fluorescein grading scale, scores from 0 to 5 were given to each eye, depending on ocular staining intensity. Semi-quantitative scoring was done in a blind manner by three independent observers. Evaluation of ocular surface damage was performed every week.
(§3) Tear fluid was obtained twice a week. Tear volume and tissue damage was evaluated once a week. Animals were treated with Restasis® (2×/day), UAMC50, UAMC1162, UAMC1169/vehicle (2×/day) for 3 consecutive weeks. Compounds 1, 2 and 4 were formulated as follows: […]

[3] = tested on: post-colitis rats; assay: post-colitis rat model for visceral pain, visceromotor response (VMR) to colorectal distension; details: for effect on VMRs (visceral pain) / effective dose in visceral pain model: post-colitis rats; for effective dose in visceral pain model: i.p.
Procedure: Male Sprague-Dawley rats (200-225 g; Charles River, Italy) were used in all experiments. Rats were housed at a constant room temperature (22±2° C.) and humidity (60%). The animals had unlimited access to water and food and were kept on a 12 h:12 h day-night cycle. They were allowed to acclimatize for at least 1 week before the start of the experiments.
In this set-up, a mild colitis was induced in the post-colitis group on day 0, using a TNBS-enema. The control group received an intrarectal administration with 0.9% NaCl. The presence of colitis was verified by a colonoscopy on day 3. From day 10 onwards, a colonoscopy was performed every 4 days to follow-up the healing of the colonic mucosa. When the colonic mucosa was completely healed, further experiments were performed 3 days later. […] After the VMR measurement, the animals were sacrificed.
TNBS-colitis was induced at day 0 using a TNBS-enema (4 mg TNBS, 50% ethanol). […] Control animals received 0.25 ml 0.9% NaCl intrarectally. The animals were kept in a tail-up position during 1 min and were then allowed to recover in a Trendelenburg position.
Electromyographic (EMG) electrodes were implanted into the external abdominal muscle and 3 days later, the VMR experiment was performed in conscious rats. A lubricated balloon (length 5 cm) was introduced into the colorectum of the animal and connected to a barostat (Distender Series II Barostat, G&J Electronics, Canada). The EMG electrodes were attached to a data-acquisition system and a phasic distension protocol (10-20-30-40-60 mmHg, 20 s, 4 min interval) was sent through the barostat. […] The VMR was quantified using the area under the curve (AUC) of the EMG signal during the distension (20 s) corrected for the EMG signal before the distension (20 s).
22.0. The results of the VMR experiments analyzed using a Generalized Estimating Equations (GEE) test with Least Significant Difference (LSD) post-hoc test. A p-value<0.05 was considered as being statistically significant. The graphs were made with GraphPad Prism 6.0.
Visceral sensitivity was assessed using the visceromotor responses (VMRs) to a colorectal distension, shown in the graphs below as area under the curve (AUC; y-axis; μV.20 s-1) for each distension pressure (x-axis; mmHg). Serine proteases seem to play an important role in the pathogenesis of visceral pain.

[4] = tested on: TNF-α and IL-1α in tear fluid; assay: rat dry eye model, pro-inflammatory cytokines in tear fluid; type: in vivo; details: dry eye rats
Procedure: as §1, §2
Tear fluid was collected once a week with 10 μl capillaries (Blaubrand® Intramark, Wertheim, Germany) connected with a flexible tube to a syringe. […]
TNF-α and IL-1α concentrations in tear fluid were measured flow cytometrically (FACS calibur, BD Biosciences), using Cytometric Bead Array (CBA) according to the manufacturers protocol (Rat IL-1α and TNF-α CBA flex sets, BD Biosciences, Erembodegem Belgium.
Tear fluid was obtained twice a week. Tear volume and tissue damage was evaluated once a week. […]

[5] = rat dry eye model, aqueous tear production (phenol red thread); type: in vivo; details: dry eye rats, 2 concentrations
Procedure: as §1, §2
A phenol red thread (Zone Quick®, Menicon Co. Ltd, Nagoya, Japan) was placed in the lateral cantus of the conjunctival fornix for 15 seconds. […] Tear fluid volumes were measured once a week.
as §3

[6] = 5 mM formulation, 2x/day, FIG. 4
[7] = 1 mg/kg i.p., single administration

With `COC(=O)NC(Cc1ccc(NC(=N)N)cc1)P(=O)(Oc1ccccc1)Oc1ccccc1` (stereo not drawn) [Compound 1] the IC50 [1] was 4 nM, the “effect on ocular tissue damage” value [2, 6] was “no effect” and the “effect on VMRs (visceral pain)” value [3, 7] was “no clear reduction of the VMRs was seen”. For the same compound, the “effect on VMRs (visceral pain)” value ([3]; 2.5 mg/kg i.p.) was “visceral pain had completely disappeared”, the “effective dose in visceral pain model” value [3] was “at least 2.5 mg/kg” and the side effect observed ([3]; rats, 5 mg/kg) was “sedation was observed”.
With `CC(=O)Nc1ccc(OP(=O)(Oc2ccc(NC(C)=O)cc2)C(Cc2ccc(NC(=N)N)cc2)NC(=O)OCc2ccccc2)cc1` (stereo not drawn) [Compound 4] the “anti-inflammatory effect on IL-1α and TNF-α in tear fluid” value ([4]; 5 mM) was “significant anti-inflammatory effect”, the “anti-inflammatory effect on IL-1α and TNF-α in tear fluid” value ([4]; two concentrations, compared with Restasis, FIGS. 6 and 7) was “overall stronger anti-inflammatory effect and faster onset of action effect than Restasis©” and the “effect on tear volume” value [5] was “no significant effects have been observed on tear volume”. For the same compound, the IC50 [1] was 2 nM, the “effect on ocular tissue damage” value [2, 6] was “superior effect on ocular tissue damage” and the tissue damage scores ([2]; follow-up experiments, 5 mM and 500 μM, vs untreated, vehicle, Restasis, FIG. 5) was “lower tissue damage scores”. For the same compound, the “effect on ocular tissue damage” value ([2]; lower dose (500 μM), day 21) was “failed to provide an effect on day 21”, the “effect on visceral sensitivity” value ([3]; control rats, 1 mg/kg i.p.) was “no significant effect on visceral sensitivity” and the “effect on VMRs (visceral pain)” value ([3]; 0.01 mg/kg i.p., single administration 30 min before VMR) was “no significant effect”. The “effect on VMRs (visceral pain)” value ([3]; 0.1 mg/kg i.p., single administration) was “significantly lowered VMRs”, the “effect on VMRs (visceral pain)” value [3, 7] was “visceral pain had completely disappeared” and the “effective dose in visceral pain model” value [3] was 0.1 mg/kg.
